Measured values reported in PubChem BioAssay (NCI).
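48-hour exposure; five concentrations; linearly interpolated endpoints. GI50: concentration for 50% inhibition of growth. TGI denotes the concentration required for complete inhibition of growth.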

Columns and labels:
Test in all cases: NCI-60 cell line screen, 48 h
CCRF-CEM leukemia = tested on: CCRF-CEM leukemia
CAKI-1 renal = tested on: CAKI-1 renal
HL-60(TB) leukemia = tested on: HL-60(TB) leukemia
MCF7 breast = tested on: MCF7 breast
HT29 colon = tested on: HT29 colon
SK-MEL-2 melanoma = tested on: SK-MEL-2 melanoma
HS 578T breast = tested on: HS 578T breast
M14 melanoma = tested on: M14 melanoma
SN12C renal = tested on: SN12C renal
OVCAR-8 ovarian = tested on: OVCAR-8 ovarian
ACHN renal = tested on: ACHN renal
MDA-MB-231 breast = tested on: MDA-MB-231 breast
SNB-75 CNS = tested on: SNB-75 CNS
786-0 renal = tested on: 786-0 renal
HCT-116 colon = tested on: HCT-116 colon
COLO 205 colon = tested on: COLO 205 colon
A498 renal = tested on: A498 renal
HOP-62 NSCLC = tested on: HOP-62 NSCLC
NCI-H460 lung = tested on: NCI-H460 lung
NCI-H522 lung = tested on: NCI-H522 lung
SW-620 colon = tested on: SW-620 colon
DU-145 prostate = tested on: DU-145 prostate
SK-MEL-28 melanoma = tested on: SK-MEL-28 melanoma
SNB-19 CNS = tested on: SNB-19 CNS
HOP-92 NSCLC = tested on: HOP-92 NSCLC
TK-10 renal = tested on: TK-10 renal
UACC-257 melanoma = tested on: UACC-257 melanoma
RXF 393 renal = tested on: RXF 393 renal
SF-539 CNS = tested on: SF-539 CNS
LOX IMVI melanoma = tested on: LOX IMVI melanoma
A549 NSCLC = tested on: A549 NSCLC
HCC-2998 colon = tested on: HCC-2998 colon
RPMI-8226 leukemia = tested on: RPMI-8226 leukemia
IGROV1 ovarian = tested on: IGROV1 ovarian
HCT-15 colon = tested on: HCT-15 colon
KM12 colon = tested on: KM12 colon
OVCAR-4 ovarian = tested on: OVCAR-4 ovarian
SF-295 CNS = tested on: SF-295 CNS
OVCAR-3 ovarian = tested on: OVCAR-3 ovarian
SR leukemia = tested on: SR leukemia
MDA-MB-435 = tested on: MDA-MB-435
OVCAR-5 ovarian = tested on: OVCAR-5 ovarian
MALME-3M melanoma = tested on: MALME-3M melanoma
MOLT-4 leukemia = tested on: MOLT-4 leukemia
K-562 leukemia = tested on: K-562 leukemia
SK-OV-3 ovarian = tested on: SK-OV-3 ovarian
SF-268 CNS = tested on: SF-268 CNS
EKVX NSCLC = tested on: EKVX NSCLC
UACC-62 melanoma = tested on: UACC-62 melanoma
U251 CNS = tested on: U251 CNS
NCI-H226 lung = tested on: NCI-H226 lung
T-47D breast = tested on: T-47D breast
BT-549 breast = tested on: BT-549 breast
SK-MEL-5 melanoma = tested on: SK-MEL-5 melanoma
PC-3 prostate = tested on: PC-3 prostate
NCI-H23 lung = tested on: NCI-H23 lung
UO-31 renal = tested on: UO-31 renal
NCI/ADR-RES ovarian = tested on: NCI/ADR-RES ovarian

Q: How did the GI50 (CCRF-CEM leukemia) turn out when `O=C1CCC(N2Cc3c(C#CCCCNC(=O)c4cc5c(o4)C(=O)c4ccccc4C5=O)cccc3C2=O)C(=O)N1` (stereo unspecified) was run?
A: 4.42 µM

Q: What about the TGI (CCRF-CEM leukemia) of the same compound?
A: 55.4 µM

Q: What about the GI50 (CAKI-1 renal) of the same compound?
A: 14.3 µM

Q: And the TGI (CAKI-1 renal)?
A: 30.7 µM

Q: What about the GI50 (HL-60(TB) leukemia) of the same compound?
A: 2.37 µM

Q: And the TGI (HL-60(TB) leukemia)?
A: 7.34 µM

Q: And the GI50 (MCF7 breast)?
A: 1.63 µM

Q: And the TGI (MCF7 breast)?
A: 3.73 µM

Q: And the GI50 (HT29 colon)?
A: 5.92 µM

Q: And the TGI (HT29 colon)?
A: 39.9 µM

Q: And the GI50 (SK-MEL-2 melanoma)?
A: 2.54 µM

Q: What about the TGI (SK-MEL-2 melanoma) of the same compound?
A: 6.47 µM

Q: And the GI50 (HS 578T breast)?
A: 2.39 µM

Q: And the TGI (HS 578T breast)?
A: 5.64 µM

Q: And the GI50 (M14 melanoma)?
A: 1.85 µM

Q: What about the TGI (M14 melanoma) of the same compound?
A: 3.59 µM

Q: And the GI50 (SN12C renal)?
A: 1.69 µM

Q: And the TGI (SN12C renal)?
A: 3.25 µM

Q: What about the GI50 (OVCAR-8 ovarian) of the same compound?
A: 3.24 µM

Q: What about the TGI (OVCAR-8 ovarian) of the same compound?
A: 87 µM

Q: And the GI50 (ACHN renal)?
A: 12.6 µM

Q: And the TGI (ACHN renal)?
A: 26 µM

Q: And the GI50 (MDA-MB-231 breast)?
A: 2.92 µM

Q: And the TGI (MDA-MB-231 breast)?
A: 19.6 µM

Q: What about the GI50 (SNB-75 CNS) of the same compound?
A: 2.09 µM

Q: What about the TGI (SNB-75 CNS) of the same compound?
A: 4.72 µM

Q: What about the GI50 (786-0 renal) of the same compound?
A: 15.3 µM

Q: What about the TGI (786-0 renal) of the same compound?
A: 32 µM

Q: And the GI50 (HCT-116 colon)?
A: 3.09 µM

Q: What about the TGI (HCT-116 colon) of the same compound?
A: 10.3 µM

Q: And the GI50 (COLO 205 colon)?
A: 2.3 µM

Q: What about the TGI (COLO 205 colon) of the same compound?
A: 6.01 µM

Q: What about the GI50 (A498 renal) of the same compound?
A: 14.2 µM

Q: What about the TGI (A498 renal) of the same compound?
A: 27.5 µM

Q: And the GI50 (HOP-62 NSCLC)?
A: 2.89 µM

Q: What about the TGI (HOP-62 NSCLC) of the same compound?
A: 9.32 µM

Q: And the GI50 (NCI-H460 lung)?
A: 1.99 µM

Q: What about the TGI (NCI-H460 lung) of the same compound?
A: 4.09 µM

Q: What about the GI50 (NCI-H522 lung) of the same compound?
A: 1.98 µM

Q: And the TGI (NCI-H522 lung)?
A: 4.61 µM

Q: What about the GI50 (SW-620 colon) of the same compound?
A: 3.05 µM

Q: What about the TGI (SW-620 colon) of the same compound?
A: 11.4 µM

Q: What about the GI50 (DU-145 prostate) of the same compound?
A: 1.82 µM

Q: What about the TGI (DU-145 prostate) of the same compound?
A: 3.28 µM

Q: And the GI50 (SK-MEL-28 melanoma)?
A: 3.53 µM

Q: What about the TGI (SK-MEL-28 melanoma) of the same compound?
A: 8.83 µM

Q: And the GI50 (SNB-19 CNS)?
A: 2.65 µM

Q: What about the TGI (SNB-19 CNS) of the same compound?
A: 8.35 µM

Q: And the GI50 (HOP-92 NSCLC)?
A: 9.07 µM

Q: What about the TGI (HOP-92 NSCLC) of the same compound?
A: 26 µM

Q: What about the GI50 (TK-10 renal) of the same compound?
A: 33.1 µM

Q: And the TGI (TK-10 renal)?
A: 50.2 µM

Q: And the GI50 (UACC-257 melanoma)?
A: 2 µM

Q: And the TGI (UACC-257 melanoma)?
A: 4.48 µM

Q: And the GI50 (RXF 393 renal)?
A: 4.55 µM

Q: And the TGI (RXF 393 renal)?
A: 18.2 µM

Q: And the GI50 (SF-539 CNS)?
A: 2.27 µM

Q: What about the TGI (SF-539 CNS) of the same compound?
A: 5.26 µM

Q: And the GI50 (LOX IMVI melanoma)?
A: 2.14 µM

Q: What about the TGI (LOX IMVI melanoma) of the same compound?
A: 5.49 µM

Q: What about the GI50 (A549 NSCLC) of the same compound?
A: 12.6 µM

Q: And the TGI (A549 NSCLC)?
A: 32.9 µM

Q: And the GI50 (HCC-2998 colon)?
A: 2.63 µM

Q: And the TGI (HCC-2998 colon)?
A: 6.63 µM

Q: What about the GI50 (RPMI-8226 leukemia) of the same compound?
A: 6.93 µM

Q: And the TGI (RPMI-8226 leukemia)?
A: 30.1 µM

Q: What about the GI50 (IGROV1 ovarian) of the same compound?
A: 4.03 µM

Q: What about the TGI (IGROV1 ovarian) of the same compound?
A: 17.2 µM

Q: What about the GI50 (HCT-15 colon) of the same compound?
A: 16.4 µM

Q: What about the TGI (HCT-15 colon) of the same compound?
A: 45.4 µM

Q: What about the GI50 (KM12 colon) of the same compound?
A: 4.52 µM

Q: What about the TGI (KM12 colon) of the same compound?
A: 28.6 µM

Q: What about the GI50 (OVCAR-4 ovarian) of the same compound?
A: 1.88 µM

Q: What about the TGI (OVCAR-4 ovarian) of the same compound?
A: 4.73 µM

Q: And the GI50 (SF-295 CNS)?
A: 2.84 µM

Q: What about the TGI (SF-295 CNS) of the same compound?
A: 8.03 µM

Q: What about the GI50 (OVCAR-3 ovarian) of the same compound?
A: 1.97 µM

Q: What about the TGI (OVCAR-3 ovarian) of the same compound?
A: 4.8 µM

Q: What about the GI50 (SR leukemia) of the same compound?
A: 3.15 µM

Q: What about the TGI (SR leukemia) of the same compound?
A: 14.5 µM

Q: What about the GI50 (MDA-MB-435) of the same compound?
A: 1.81 µM

Q: What about the TGI (MDA-MB-435) of the same compound?
A: 3.27 µM

Q: What about the GI50 (OVCAR-5 ovarian) of the same compound?
A: 15.6 µM

Q: And the TGI (OVCAR-5 ovarian)?
A: 29.7 µM

Q: What about the GI50 (MALME-3M melanoma) of the same compound?
A: 0.988 µM

Q: And the TGI (MALME-3M melanoma)?
A: 2.19 µM

Q: What about the GI50 (MOLT-4 leukemia) of the same compound?
A: 3.08 µM

Q: What about the TGI (MOLT-4 leukemia) of the same compound?
A: 12.5 µM

Q: What about the GI50 (K-562 leukemia) of the same compound?
A: 3.11 µM

Q: What about the TGI (K-562 leukemia) of the same compound?
A: 16.6 µM

Q: What about the GI50 (SK-OV-3 ovarian) of the same compound?
A: 15.9 µM

Q: What about the TGI (SK-OV-3 ovarian) of the same compound?
A: 30.4 µM

Q: What about the GI50 (SF-268 CNS) of the same compound?
A: 3.06 µM

Q: What about the TGI (SF-268 CNS) of the same compound?
A: 11.2 µM

Q: What about the GI50 (EKVX NSCLC) of the same compound?
A: 15 µM

Q: What about the TGI (EKVX NSCLC) of the same compound?
A: 31.1 µM

Q: And the GI50 (UACC-62 melanoma)?
A: 1.87 µM

Q: And the TGI (UACC-62 melanoma)?
A: 3.65 µM

Q: And the GI50 (U251 CNS)?
A: 2.87 µM

Q: And the TGI (U251 CNS)?
A: 8.07 µM

Q: And the GI50 (NCI-H226 lung)?
A: 12.5 µM

Q: And the TGI (NCI-H226 lung)?
A: 30.2 µM

Q: What about the GI50 (T-47D breast) of the same compound?
A: 3.16 µM

Q: And the TGI (T-47D breast)?
A: 11.9 µM

Q: What about the GI50 (BT-549 breast) of the same compound?
A: 1.73 µM

Q: What about the TGI (BT-549 breast) of the same compound?
A: 3.17 µM

Q: And the GI50 (SK-MEL-5 melanoma)?
A: 1.75 µM

Q: What about the TGI (SK-MEL-5 melanoma) of the same compound?
A: 3.25 µM

Q: What about the GI50 (PC-3 prostate) of the same compound?
A: 2.95 µM

Q: What about the TGI (PC-3 prostate) of the same compound?
A: 56.2 µM

Q: And the GI50 (NCI-H23 lung)?
A: 1.58 µM

Q: What about the TGI (NCI-H23 lung) of the same compound?
A: 4.44 µM

Q: And the GI50 (UO-31 renal)?
A: 14 µM

Q: And the TGI (UO-31 renal)?
A: 36.1 µM

Q: What about the GI50 (NCI/ADR-RES ovarian) of the same compound?
A: > 100 µM

Q: And the TGI (NCI/ADR-RES ovarian)?
A: > 100 µM
